From patent publication US20170342110A1, “GLYCOPEPTIDES AND USES THEREOF” (JAWAHARLAL NEHRU CENTRE FOR ADVANCED SCIENTIFIC RESEARCH …, priority 2014, published 2017) come the findings set out here.

Test [1] relates to Vancomycin-resistant E. faecium (ATCC 51559). The test is described as follows: Minimum inhibitory concentration, micro-dilution broth, VREm. The conditions noted are these: for MIC: Enterococcus faecium, read-out: Minimum Inhibitory Concentration VREm. It is filed as cell-based. Here is the method: (§1) All test compounds were assayed in a micro-dilution broth format. Stock solutions were made by serially diluting the compounds using autoclaved millipore water or broth media. The antibacterial activity of the compounds was determined againstmethicillin-resistant S. aureus (MRSA), vancomycin-intermediate-resistant S. aureus (VISA), vancomycin-sensitive E. faecium (VSE), vancomycin-resistant E. faecalis and vancomycin-resistant E. faecium (VRE). Bacteria, to be tested, were grown for about 10 h in the suitable media, MSSA, MRSA and VISA were grown in […] (about 1 g of beef extract, about 2 g of yeast extract, about 5 g of peptone and about 5 g of NaCl in about 1000 mL of sterile distilled water (pH-7)). For solid media, about 5% agar was used along with above mentioned composition. VSE and VRE were cultured in Brain Heart Infusion broth (Himedia). The bacterial samples were freeze dried and stored at −80° C. About 5 μL of these stocks were added to about 3 mL of the nutrient broth or Brain Heart Infusion broth and the culture was grown for about 6 h at about 37° C. prior to the experiments. This 6 h grown culture gives about 10^9 cfu/mL and this was determined by spread plating method. The 6 h grown culture was diluted to give effective cell concentration of about 10^5 cfu/mL, which was then used for determining MIC. Compounds were serially diluted, in sterile water (2-fold dilution is employed) in a way that the working concentration was about 10 μM for MRSA, and VSE while for VRE and VISA it was about 100 μM. About 50 μL of these serial dilutions were added to the wells of 96 well plate followed by the addition of about 150 μL of bacterial solution. The plates were then incubated at about 37° C., 150 rpm in the incubator and O.D at 620 nm was recorded at an interval of about 24 h using TECAN (Infinite series, M200 pro) Plate Reader. Each concentration had triplicate values and the whole experiment was done at least twice and the MIC value was determined by taking the average of triplicate O. D. values for each concentration and plotting it against concentration. The data was then subjected to sigmoidal fitting.
For orientation: Dilution methods test growth across graded concentrations, often in twofold steps.

Test [2] relates to Vancomycin intermediate resistant S. aureus. The test is described as follows: Minimum inhibitory concentration, micro-dilution broth, VISA. In kind it is cell-based. Particulars: Staphylococcus aureus, read-out: Minimum Inhibitory Concentration VISA. The protocol:
as §1

In test [3] the test system is Methicillin-resistant S. aureus (ATCC 33591). As to the kind of experiment: Minimum inhibitory concentration, micro-dilution broth, MRSA. In kind it is cell-based. Particulars: Staphylococcus aureus, read-out: Minimum Inhibitory Concentration MRSA. Here is the method: as §1
Test [4] has as its system Vancomycin-resistant E. faecalis (VanA, ATCC 51575). As to the kind of experiment: Minimum inhibitory concentration, micro-dilution broth, VREs. The conditions noted are these: Enterococcus faecalis, read-out: Minimum Inhibitory Concentration VREs. In kind it is cell-based. Here is the method:
as §1

Test [5] deals with methicillin-resistant vancomycin intermediate S. aureus (MR-VISA). The test is described as follows: Mouse neutropenic thigh infection model against MR-VISA. It is filed as in vivo. Particulars: neutropenic female CD-1 mice, 12 mg/kg intravenously, 24 h post first treatment. Here is the method: In-vivo activity against methicillin-resistant vancomycin intermediate S. aureus (MR-VISA):
Mouse Neutropenic Thigh Infection Model:
About six-week-old, female CD-1 mice (weight, ˜19-24 g) were used for the experiments. The mice were rendered neutropenic (˜100 neutrophils/ml) by injecting two doses of cyclophosphamide intraperitoneally 4 days (150 mg/kg) and 1 day (100 mg/kg) before the infection experiment. 50 μL of […] concentration of the bacterial inoculum (MR-VISA) was injected into the thigh. One hour after inoculation, animals were treated intravenously with saline, vancomycin, linezolid and compound 14 at 12 mg/kg body weight. At 24 h post first treatment, cohorts of animals were euthanized (using ether) and the thighs were collected aseptically. […] The dilutions of the homogenate were plated onto agar plates, which were incubated overnight at 37° C. The bacterial titer was expressed as log10 CFU/g of thigh weight.

Setting [6] is: ATCC51559, E. faecium ATCC 51559, O.D. 620 nm at 24 h.
Where [7] appears, read: MRSA ATCC 33591, O.D. 620 nm at 24 h.
The mark [8] stands for this setting: ATCC51575, E. faecalis ATCC 51575, O.D. 620 nm at 24 h.

Converted amounts (≈) assume the structure as drawn. Like-named read-outs stand apart in the source and are kept apart here.

With `CCCCCCCC[n+]1ccc(CNC2(C)CC(OC3C(Oc4c5cc6cc4Oc4ccc(cc4Cl)C(O)C4NC(=O)[C@@H](NC(=O)[C@@H]6NC(=O)C(CC(N)=O)NC(=O)C(NC(=O)C(CC(C)C)NC)C(O)c6ccc(c(Cl)c6)O5)c5ccc(O)c(c5)-c5c(O)cc(O)cc5[C@@H](C(=O)NCCCNC(=O)C(O)C(O)C(O[C@H]5OC(CO)C(O)C(O)C5O)C(O)CO)NC4=O)OC(CO)C(O)C3O)OC(C)C2O)cc1` (some centres unmarked) [Compound 14], the MIC is 0.09 µM in test [1] (setting [6]), 0.1 µM in test [2] (O.D. 620 nm at 24 h), 0.09 µM in test [3] (setting [7]) and 1.36 µM in test [4] (setting [8]). Further, in test [1] (relative to vancomycin), the “fold more active than vancomycin against VREm/VRE (MIC)” value is more than 7500 fold. Also, in test [5], the “reduction in bacterial count from the vehicle treated mice” value is listed as approximately 6.0 log10 CFU/g.
As for `CCCCCCCCCC[n+]1ccc(CNC2(C)CC(OC3C(Oc4c5cc6cc4Oc4ccc(cc4Cl)C(O)C4NC(=O)[C@@H](NC(=O)[C@@H]6NC(=O)C(CC(N)=O)NC(=O)C(NC(=O)C(CC(C)C)NC)C(O)c6ccc(c(Cl)c6)O5)c5ccc(O)c(c5)-c5c(O)cc(O)cc5[C@@H](C(=O)NCCCNC(=O)C(O)C(O)C(O[C@H]5OC(CO)C(O)C(O)C5O)C(O)CO)NC4=O)OC(CO)C(O)C3O)OC(C)C2O)cc1` (some centres unmarked) [Compound 15], the MIC in test [1] (setting [6]) stood at 0.3 µM; in test [2] (O.D. 620 nm at 24 h), 0.09 µM; in test [3] (setting [7]), 0.2 µM; in test [4] (setting [8]), 1.3 µM.
With `CCCCCCCCCCCC[n+]1ccc(CNC2(C)CC(OC3C(Oc4c5cc6cc4Oc4ccc(cc4Cl)C(O)C4NC(=O)[C@@H](NC(=O)[C@@H]6NC(=O)C(CC(N)=O)NC(=O)C(NC(=O)C(CC(C)C)NC)C(O)c6ccc(c(Cl)c6)O5)c5ccc(O)c(c5)-c5c(O)cc(O)cc5[C@@H](C(=O)NCCCNC(=O)C(O)C(O)C(OC5OC(CO)C(O)C(O)C5O)C(O)CO)NC4=O)OC(CO)C(O)C3O)OC(C)C2O)cc1` (some centres unmarked) [Compound 16], the MIC in test [1] (setting [6]) was 0.37 µM; in test [2] (O.D. 620 nm at 24 h), 0.31 µM; in test [3] (setting [7]), 0.28 µM; in test [4] (setting [8]), 1.11 µM.
As for `CNC(CC(C)C)C(=O)NC1C(=O)N[C@H](CC(N)=O)C(=O)N[C@H]2C(=O)N[C@H]3C(=O)NC(C(=O)N[C@@H](C(=O)O)c4cc(O)cc(O)c4-c4cc3ccc4O)C(O)c3ccc(c(Cl)c3)Oc3cc2cc(c3OC2OC(CO)C(O)C(O)C2OC2CC(C)(N)C(O)C(C)O2)Oc2ccc(cc2Cl)C1O` (some centres unmarked) [Vancomycin, reference compound], the MIC was 750 µM (≈ 1090 µg/mL) in test [1] (ATCC51559, 24 h); 8 to 12 µM (≈ 11.6 to 17.4 µg/mL) in test [2] (24 h); 0.78 µM (≈ 1.13 µg/mL) in test [3] (24 h); 250 µM (≈ 362 µg/mL) in test [4] (ATCC51575, 24 h). In test [5], the “in-vivo antibacterial activity compared to vehicle treated mice (saline), in words” value is on record as “minimal or no activity”.
With `CC(=O)NC[C@H]1CN(c2ccc(N3CCOCC3)c(F)c2)C(=O)O1` [linezolid], the “in-vivo antibacterial activity compared to vehicle treated mice (saline), in words” value in test [5] is reported as “minimal or no activity”.
